Test: Lipophilicity by reversed-phase thin-layer chromatography (RPTLC, RP-18W/UV254 plates)
Type: physicochemical
Conditions: φ = 0.34 - 0.56 v/v, room temperature
Experimental: During chromatographic examinations commercial plates (RP-18W/UV254 Macherey-Nagel GmBH and Co., Duren, Germany) were used as the stationary phase. Mixtures of LC grade organic modifiers (J. T. Baker, Deventer, the Netherlands) and filtered bi-distilled water were used as the mobile phase.
The tested chloroacetamides were dissolved in ethanol (analytical purity) in concentration 2 mg mL^–1. About 0.2 µL of freshly prepared solution of each compound was spotted on the plates which were then developed by the ascending technique in the unsaturated chambers at room temperature with an aqueous solutions of two organic modifiers: methanol (φ = 0.34 - 0.56, v/v) and acetone (φ = 0.34 - 0.56, v/v). The visualization of the tested compounds on the dried developed plates was performed under a UV light at λ= 254 nm. In both applied modifiers for each composition three chromatograms were developed and then the average Rf values were calculated.
From the experimentally obtained Rf values, for each composition of the mobile phase, RM values were calculated according to the Equation: […]
The relationships between the retention values, RM, of the compound and the volume fraction of the organic modifier in the mobile phase, φ, were given by:
Where intercept, RM^0, represents the chromatographic retention constant, while the slope of the linear plot, m, which is the change in RM is caused by the unit of the organic modifier concentration in the mobile phase and depends on the properties of the solute. Commonly, it is related to the specific hydrophobic surface area of the compound ([39]). Chromatographic parameter m can be applied as alternative measure of lipophilicity, also ([40], [41]).Values of these parameters obtained for chloroacetamides in the used modifiers are given in Table 4.

R M ^0 (chromatographic retention constant, intercept) (acetone-water mobile phase)	m (slope of RM vs φ) (acetone-water mobile phase)	R M ^0 (chromatographic retention constant, intercept) (methanol-water mobile phase)	m (slope of RM vs φ) (methanol-water mobile phase)	SMILES
1.780 (±0.105)	-3.105 (±0.238)	1.958 (±0.115)	-3.151 (±0.251)	O=C(CCl)Nc1cccc(Br)c1 [Compound 3Br]
1.130 (±0.115)	-2.431 (±0.258)	1.247 (±0.122)	-2.478 (±0.265)	COc1ccc(NC(=O)CCl)cc1 [Compound 4OCH3]
1.341 (±0.042)	-2.440 (±0.095)	1.354 (±0.088)	-2.486 (±0.192)	O=C(CCl)Nc1ccc(F)cc1 [Compound 4F]
1.118 (±0.077)	-2.396 (±0.173)	1.275 (±0.121)	-2.549 (±0.263)	CC(=O)c1ccc(NC(=O)CCl)cc1 [Compound 4COCH3]
1.074 (±0.117)	-2.033 (±0.263)	1.382 (±0.039)	-2.749 (±0.086)	N#Cc1ccc(NC(=O)CCl)cc1 [Compound 4CN]
1.186 (±0.101)	-2.278 (±0.218)	1.362 (±0.082)	-2.726 (±0.182)	N#Cc1cccc(NC(=O)CCl)c1 [Compound 3CN]
0.763 (±0.030)	-1.865 (±0.068)	1.577 (±0.069)	-3.032 (±0.154)	O=C(CCl)Nc1ccc(O)cc1 [Compound 4OH]
1.370 (±0.097)	-2.583 (±0.220)	1.542 (±0.067)	-2.673 (±0.146)	Cc1ccc(NC(=O)CCl)cc1 [Compound 4CH3]
1.636 (±0.139)	-2.945 (±0.313)	1.788 (±0.140)	-2.944 (±0.306)	O=C(CCl)Nc1ccc(Cl)cc1 [Compound 4Cl]
1.849 (±0.087)	-3.175 (±0.195)	1.951 (±0.100)	-3.137 (±0.218)	O=C(CCl)Nc1ccc(Br)cc1 [Compound 4Br]
1.963 (±0.143)	-3.375 (±0.323)	2.124 (±0.122)	-3.282 (±0.266)	O=C(CCl)Nc1ccc(I)cc1 [Compound 4I]
1.106 (±0.132)	-2.225 (±0.285)	1.171 (±0.123)	-2.309 (±0.268)	O=C(CCl)Nc1ccccc1 [H]

From paper PMC5937082, “Prediction of Lipophilicity and Pharmacokinetics of Chloroacetamides by Chemometric Approach” (Iranian Journal of Pharmaceutical Research : IJPR, 2018)
